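The compound was tested at five concentrations on cells cultured in 96-well plates, with a 48-hour exposure period. GI50 marks 50% less growth.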 Calls of active or inactive are those of the source. No stated cut-off is given here; in the data, active = GI50 up to about 1.1 µM and inactive = higher.
Key:
Test in all cases: NCI-60 cell line screen, 48 h
Malme-3M = tested on: Malme-3M
PC-3 = tested on: PC-3
MCF7 = tested on: MCF7
HCC 2998 = tested on: HCC 2998
OVCAR-5 = tested on: OVCAR-5
A549 = tested on: A549
IGROV-1 = tested on: IGROV-1
Hs-578T = tested on: Hs-578T
OVCAR-3 = tested on: OVCAR-3
CCRF-CEM = tested on: CCRF-CEM
786-0 = tested on: 786-0
SF-295 = tested on: SF-295
HT-29 = tested on: HT-29
SNB-19 = tested on: SNB-19
UACC-257 = tested on: UACC-257
MDA-MB-231 = tested on: MDA-MB-231
NCI-H522 = tested on: NCI-H522
U-251 = tested on: U-251
SK-MEL-2 = tested on: SK-MEL-2
DU-145 = tested on: DU-145

SMILES | GI50 (Malme-3M) | GI50 (PC-3) | GI50 (MCF7) | GI50 (HCC 2998) | GI50 (OVCAR-5) | GI50 (A549) | GI50 (IGROV-1) | GI50 (Hs-578T) | GI50 (OVCAR-3) | GI50 (CCRF-CEM) | GI50 (786-0) | GI50 (SF-295) | GI50 (HT-29) | GI50 (SNB-19) | GI50 (UACC-257) | GI50 (MDA-MB-231) | GI50 (NCI-H522) | GI50 (U-251) | GI50 (SK-MEL-2) | GI50 (DU-145)
CCCCc1ccc(Nc2nc3c(ncn3C3OC(COC(C)=O)C(OC(C)=O)C3OC(C)=O)c(=O)[nH]2)cc1 (stereo not given) | 19.4 µM (inactive) | 19.7 µM (inactive) | 23 µM (inactive) | 20.7 µM (inactive) | 79.6 µM (inactive) | 92.7 µM (inactive) | 17.5 µM (inactive) | 22.9 µM (inactive) | 15.3 µM (inactive) | 16.3 µM (inactive) | 17.2 µM (inactive) | 21.2 µM (inactive) | 19.1 µM (inactive) | 27.7 µM (inactive) | 18.9 µM (inactive) | 16.7 µM (inactive) | 18 µM (inactive) | 21 µM (inactive) | 15.7 µM (inactive) | 31.3 µM (inactive)
COc1cc(OC)cc(Oc2nc3ccccc3nc2C(F)(F)F)c1 | > 100 µM (inactive) | 89.7 µM (inactive) | > 100 µM (inactive) | > 100 µM (inactive) | 45.1 µM (inactive) | > 100 µM (inactive) | 5.89 µM (inactive) | 72.1 µM (inactive) | > 100 µM (inactive) | 0.986 µM (active) | > 100 µM (inactive) | 28.8 µM (inactive) | > 100 µM (inactive) | 53.7 µM (inactive) | > 100 µM (inactive) | 14.7 µM (inactive) | > 100 µM (inactive) | 27.2 µM (inactive) | 48.6 µM (inactive) | > 100 µM (inactive)
O=c1onc2n1-c1ccc(Cl)cc1C(=S)N1CSCC21 (stereo not given) | 47.3 µM (inactive) | 31.4 µM (inactive) | 28.4 µM (inactive) | 19.5 µM (inactive) | 31.3 µM (inactive) | 34.8 µM (inactive) | 26.5 µM (inactive) | 22.2 µM (inactive) | 38.8 µM (inactive) | 25.9 µM (inactive) | 23.1 µM (inactive) | 17.5 µM (inactive) | 24.5 µM (inactive) | 22.3 µM (inactive) | > 100 µM (inactive) | 19.5 µM (inactive) | 21.9 µM (inactive) | 18.2 µM (inactive) | 25.1 µM (inactive) | 34.2 µM (inactive)
N#CC1(C2SCC[S+]2[O-])C2=C(C(=O)c3ccccc3C2=O)N2CCCC21 (stereo not given) | 0.381 µM (active) | 1.88 µM (inactive) | 1.63 µM (inactive) | 4.85 µM (inactive) | 3.78 µM (inactive) | 2.1 µM (inactive) | 1.75 µM (inactive) | 3.46 µM (inactive) | 0.583 µM (active) | 2.94 µM (inactive) | 4.21 µM (inactive) | 1.99 µM (inactive) | 3.59 µM (inactive) | 6.35 µM (inactive) | 1.36 µM (inactive) | 2.17 µM (inactive) | 2.11 µM (inactive) | 3.4 µM (inactive) | 1.69 µM (inactive) | 2.18 µM (inactive)
N=c1sc(N2CCOCC2)nn1CC(=O)c1ccccc1 | > 100 µM (inactive) | 96.8 µM (inactive) | 53.5 µM (inactive) | > 100 µM (inactive) | > 100 µM (inactive) | > 100 µM (inactive) | > 100 µM (inactive) | > 100 µM (inactive) | 66.5 µM (inactive) | > 100 µM (inactive) | > 100 µM (inactive) | > 100 µM (inactive) | > 100 µM (inactive) | > 100 µM (inactive) | > 100 µM (inactive) | > 100 µM (inactive) | > 100 µM (inactive) | > 100 µM (inactive) | > 100 µM (inactive) | > 100 µM (inactive)

From ChEMBL document CHEMBL1201862, “PubChem BioAssay data set” (2004)
